In US5840684A, “Glycopeptide antibiotic derivatives” (Eli Lilly and Company, priority 1995, dated 1998):
≈ marks a conversion by molar mass, not a printed value.

Key:
[1] = tested on: Staphylococcus aureus S13E; assay type: cell-based
Procedure: (§1) The MIC's were determined using a standard broth micro-dilution assay.

[2] = tested on: Staphylococcus aureus SA1199B; assay type: cell-based
Procedure: as §1

[3] = tested on: Entercoccus faecium 180-1; assay: broth micro-dilution MIC; assay type: cell-based
Procedure: as §1

Entercoccus faecium 276 = assay: broth micro-dilution MIC; assay type: cell-based
Procedure: as §1

[4] = tested on: Staphylococcus aureus 446; assay: broth micro-dilution MIC; assay type: cell-based
Procedure: as §1

[5] = tested on: Staphylococcus aureus 447; assay: broth micro-dilution MIC; assay type: cell-based
Procedure: as §1

[6] = tested on: Staphylococcus aureus 489; assay: broth micro-dilution MIC; assay type: cell-based
Procedure: as §1

[7] = tested on: Staphylococcus aureus 491; assay: broth micro-dilution MIC; assay type: cell-based
Procedure: as §1

[8] = tested on: Staphylococcus aureus SA1199A; assay: broth micro-dilution MIC; assay type: cell-based
Procedure: as §1

[9] = tested on: Staphylococcus aureus SA1199; assay: broth micro-dilution MIC; assay type: cell-based
Procedure: as §1

[10] = tested on: Staphylococcus aureus X400; assay: broth micro-dilution MIC; assay type: cell-based
Procedure: as §1

[11] = tested on: Staphylococcus aureus X778; assay: broth micro-dilution MIC; assay type: cell-based
Procedure: as §1

[12] = tested on: Streptococcus pyogenes C203; assay: broth micro-dilution MIC; assay type: cell-based
Procedure: as §1

Entercoccus faecium 180 = assay: broth micro-dilution MIC; assay type: cell-based; details: Entercoccus faecium 180
Procedure: (§2) The formula I compounds have in vitro and in vivo activity against Gram-positive pathogenic bacteria. The MIC's were determined using a standard broth micro-dilution assay.

Entercoccus faecium 2041 = assay: broth micro-dilution MIC; assay type: cell-based; details: Entercoccus faecium 2041
Procedure: as §2

[13] = tested on: Enterococcus gallinarum 245; assay: broth micro-dilution MIC; assay type: cell-based; details: Enterococcus gallinarum 245
Procedure: as §2

Escherichia coli EC14 = assay: broth micro-dilution MIC; assay type: cell-based
Procedure: as §2

[14] = tested on: Haemophilus influenzae RD; assay: broth micro-dilution MIC; assay type: cell-based; details: Haemophilus influenzae RD
Procedure: as §2

[15] = tested on: Staphylococcus epidermidis 270; assay: broth micro-dilution MIC; assay type: cell-based
Procedure: as §2

[16] = tested on: Staphylococcus haemolyticus 105; assay: broth micro-dilution MIC; assay type: cell-based
Procedure: as §2

[17] = tested on: Staphylococcus haemolyticus 415; assay: broth micro-dilution MIC; assay type: cell-based
Procedure: as §2

[18] = tested on: Streptococcus pneumoniae P1; assay: broth micro-dilution MIC; assay type: cell-based
Procedure: as §2

[19] = tested on: vancomycin-resistant enterococci; assay: broth micro-dilution, mean geometric MIC; assay type: cell-based, Enterococcus faecium and Enterococcus faecalis; details: enterococci, 24-hour incubation
[20] = tested on: vancomycin-susceptible enterococci; assay: broth micro-dilution, mean geometric MIC; assay type: cell-based, Enterococcus faecium and Enterococcus faecalis; details: enterococci, 24-hour incubation

SMILES | MIC [1] | MIC [2] | MIC [3] | MIC (Entercoccus faecium 276) | MIC [4] | MIC [5] | MIC [6] | MIC [7] | MIC [8] | MIC [10] | MIC [11] | MIC (Entercoccus faecium 180) | MIC (Entercoccus faecium 2041) | MIC [13] | MIC (Escherichia coli EC14) | MIC [14] | MIC [15] | MIC [16] | mean geometric MIC, Vancomycin Resistant Strains [19] | mean geometric MIC, Vancomycin Sensitive Strains [20] | further results
CC(C)CC(C(=O)NC1C(=O)NC(CC(N)=O)C(=O)NC2C(=O)NC3C(=O)NC(C(=O)NC(C(=O)O)c4cc(O)cc(O)c4-c4cc3ccc4O)C(OC3CC(C)(N)C(O)C(C)O3)c3ccc(c(Cl)c3)Oc3cc2cc(c3OC2OC(CO)C(O)C(O)C2OC2CC(C)(N)C(O)C(C)O2)Oc2ccc(cc2Cl)C1O)N(C)Cc1ccc(-c2ccccc2)cc1 (centres unmarked) [Compound 250] | ≤ 0.06 mg/L | ≤ 0.06 mg/L | ≤ 0.06 mg/L | ≤ 0.06 mg/L | 0.25 mg/L (≈ 0.142 µM) | 0.125 mg/L (≈ 0.0711 µM) | ≤ 0.06 mg/L | ≤ 0.06 mg/L | ≤ 0.06 mg/L | ≤ 0.06 mg/L | ≤ 0.06 mg/L | 2 mg/L (≈ 1.14 µM) | ≤ 0.06 mg/L | 4 mg/L (≈ 2.27 µM) | > 64 mg/L | > 64 mg/L | 0.25 mg/L (≈ 0.142 µM) | 2 mg/L (≈ 1.14 µM) | 16 mg/L | 0.44 mg/L | MIC [9]: ≤ 0.06 mg/L; MIC [12]: ≤ 0.06 mg/L; MIC [17]: 4 mg/L (≈ 2.27 µM); MIC [18]: ≤ 0.06 mg/L
CNC(CC(C)C)C(=O)NC1C(=O)NC(CC(N)=O)C(=O)NC2C(=O)NC3C(=O)NC(C(=O)NC(C(=O)O)c4cc(O)cc(O)c4-c4cc3ccc4O)C(OC3CC(C)(N)C(O)C(C)O3)c3ccc(c(Cl)c3)Oc3cc2cc(c3OC2OC(CO)C(O)C(O)C2OC2CC(C)(NCc3ccccn3)C(O)C(C)O2)Oc2ccc(cc2Cl)C1O (centres unmarked) [Compound 31] | – | – | ≤ 0.06 mg/L | – | 0.5 mg/L (≈ 0.297 µM) | 0.5 mg/L (≈ 0.297 µM) | ≤ 0.06 mg/L | 0.5 mg/L (≈ 0.297 µM) | – | – | – | 4 mg/L (≈ 2.38 µM) | – | – | > 64 mg/L | > 64 mg/L | 1 mg/L (≈ 0.594 µM) | 4 mg/L (≈ 2.38 µM) | 9.5 mg/L | 1.2 mg/L | –
CNC(CC(C)C)C(=O)NC1C(=O)NC(CC(N)=O)C(=O)NC2C(=O)NC3C(=O)NC(C(=O)NC(C(=O)O)c4cc(O)cc(O)c4-c4cc3ccc4O)C(OC3CC(C)(N)C(O)C(C)O3)c3ccc(c(Cl)c3)Oc3cc2cc(c3OC2OC(CO)C(O)C(O)C2OC2CC(C)(NCc3ccc4ccccc4n3)C(O)C(C)O2)Oc2ccc(cc2Cl)C1O (centres unmarked) [Compound 30] | 0.125 mg/L (≈ 0.0721 µM) | 0.125 mg/L (≈ 0.0721 µM) | ≤ 0.06 mg/L | 0.25 mg/L (≈ 0.144 µM) | 1 mg/L (≈ 0.577 µM) | 2 mg/L (≈ 1.15 µM) | 0.125 mg/L (≈ 0.0721 µM) | 0.5 mg/L (≈ 0.288 µM) | – | ≤ 0.06 mg/L | ≤ 0.06 mg/L | 2 mg/L (≈ 1.15 µM) | ≤ 0.06 mg/L | ≤ 0.06 mg/L | > 64 mg/L | > 64 mg/L | 2 mg/L (≈ 1.15 µM) | 4 mg/L (≈ 2.31 µM) | 4.7 mg/L | 0.071 mg/L | MIC [9]: 0.5 mg/L (≈ 0.288 µM)
CNC(CC(C)C)C(=O)NC1C(=O)NC(CC(N)=O)C(=O)NC2C(=O)NC3C(=O)NC(C(=O)NC(C(=O)O)c4cc(O)cc(O)c4-c4cc3ccc4O)C(OC3CC(C)(NCc4ccc([N+](=O)[O-])cc4)C(O)C(C)O3)c3ccc(c(Cl)c3)Oc3cc2cc(c3OC2OC(CO)C(O)C(O)C2OC2CC(C)(NCc3ccc([N+](=O)[O-])cc3)C(O)C(C)O2)Oc2ccc(cc2Cl)C1O (centres unmarked) [Compound 245] | – | ≤ 0.06 mg/L | ≤ 0.06 mg/L | ≤ 0.06 mg/L | ≤ 0.06 mg/L | ≤ 0.06 mg/L | ≤ 0.06 mg/L | 0.5 mg/L (≈ 0.268 µM) | ≤ 0.06 mg/L | ≤ 0.06 mg/L | ≤ 0.06 mg/L | 2 mg/L (≈ 1.07 µM) | ≤ 0.06 mg/L | ≤ 0.06 mg/L | 0.5 mg/L (≈ 0.268 µM) | > 64 mg/L | 0.5 mg/L (≈ 0.268 µM) | 1 mg/L (≈ 0.537 µM) | 13 mg/L | 0.38 mg/L | MIC [9]: 0.25 mg/L (≈ 0.134 µM); MIC [12]: 2 mg/L (≈ 1.07 µM); MIC [17]: 8 mg/L (≈ 4.29 µM); MIC [18]: 1 mg/L (≈ 0.537 µM)
CNC(CC(C)C)C(=O)NC1C(=O)NC(CC(N)=O)C(=O)NC2C(=O)NC3C(=O)NC(C(=O)NC(C(=O)O)c4cc(O)cc(O)c4-c4cc3ccc4O)C(OC3CC(C)(NCc4ccc5c(c4)Cc4ccccc4-5)C(O)C(C)O3)c3ccc(c(Cl)c3)Oc3cc2cc(c3OC2OC(CO)C(O)C(O)C2OC2CC(C)(NCc3ccc4c(c3)Cc3ccccc3-4)C(O)C(C)O2)Oc2ccc(cc2Cl)C1O (centres unmarked) [Compound 279] | 0.25 mg/L (≈ 0.128 µM) | ≤ 0.06 mg/L | ≤ 0.06 mg/L | 0.125 mg/L (≈ 0.0641 µM) | 0.5 mg/L (≈ 0.257 µM) | 1 mg/L (≈ 0.513 µM) | – | 0.25 mg/L (≈ 0.128 µM) | ≤ 0.06 mg/L | 0.25 mg/L (≈ 0.128 µM) | 0.25 mg/L (≈ 0.128 µM) | ≤ 0.06 mg/L | ≤ 0.06 mg/L | 2 mg/L (≈ 1.03 µM) | > 64 mg/L | > 64 mg/L | 1 mg/L (≈ 0.513 µM) | 4 mg/L (≈ 2.05 µM) | 2.4 mg/L | 0.11 mg/L | MIC [9]: 0.5 mg/L (≈ 0.257 µM); MIC [12]: ≤ 0.06 mg/L; MIC [17]: 2 mg/L (≈ 1.03 µM); MIC [18]: ≤ 0.06 mg/L
CNC(CC(C)C)C(=O)NC1C(=O)NC(CC(N)=O)C(=O)NC2C(=O)NC3C(=O)NC(C(=O)NC(C(=O)O)c4cc(O)cc(O)c4-c4cc3ccc4O)C(OC3CC(C)(N)C(O)C(C)O3)c3ccc(c(Cl)c3)Oc3cc2cc(c3OC2OC(CO)C(O)C(O)C2OC2CC(C)(NCc3c4ccccc4c(Cl)c4ccccc34)C(O)C(C)O2)Oc2ccc(cc2Cl)C1O (centres unmarked) [Compound 18] | 1 mg/L (≈ 0.55 µM) | 2 mg/L (≈ 1.1 µM) | ≤ 0.06 mg/L | 1 mg/L (≈ 0.55 µM) | 2 mg/L (≈ 1.1 µM) | 8 mg/L (≈ 4.4 µM) | 1 mg/L (≈ 0.55 µM) | 2 mg/L (≈ 1.1 µM) | ≤ 0.06 mg/L | 1 mg/L (≈ 0.55 µM) | 0.5 mg/L (≈ 0.275 µM) | 2 mg/L (≈ 1.1 µM) | 0.25 mg/L (≈ 0.138 µM) | 1 mg/L (≈ 0.55 µM) | > 64 mg/L | 16 mg/L (≈ 8.81 µM) | 8 mg/L (≈ 4.4 µM) | 16 mg/L (≈ 8.81 µM) | 6.7 mg/L | 0.38 mg/L | MIC [12]: ≤ 0.06 mg/L; MIC [17]: 8 mg/L (≈ 4.4 µM); MIC [18]: ≤ 0.06 mg/L
